The values that follow come from patent publication US11071743B1, “Effective, non-toxic treatments for brain cancer” (priority 2015, dated 2021).

The test system of data set [1] is lipid-encapsulated viruses. The note with it: in vitro; cited from earlier work.
The conditions of data set [2]: normal brains; cited from earlier work.
The subject of data set [3] is glioblastoma. Particulars: in lab dishes; cited from earlier work.
Data set [4] relates to glioblastoma multiforme. Put plainly: Example Two: treatment of a patient. The format is in vivo, human. The note with it: dose escalated to 22 mg/kg. On the procedure:
A person living in Argentina was diagnosed with glioblastoma multiforme in January of 2014 and was immediately treated with surgery, chemotherapy, and radiation.
Shortly thereafter, near the middle of October, the patient began receiving the following regimen, alfacalcidol not being available: valganciclovir, 450 mg twice a day melatonin, 12 mg twice a day
BHT, 700 mg in the morning plus 350 mg at night resveratrol, 175 mg twice a day lycopene, 15 mg once a day
Honokiol, 250 mg twice a day metformin, 500 mg once a day, and vitamin D3, 2800 IU at night.
About two weeks later, bio-absorbable curcumin (from the Life Extension Foundation, described above), 400 mg twice a day, was added to the regimen, and circa November 4th, alfacalcidol was added to the regimen (3 micrograms in the morning).
The supply of alfacalcidol ran out at about that time. At the same time, sugar and other carbohydrate intake was restricted. In February, the dexamethasone dose was cut to 1 and 2 mg in the morning and evening, respectively. […] Alfacalcidol was resumed in April, at a double dose (3 micrograms twice a day) to compensate in part for the previous lapse, at which time the dexamethasone dose was cut to 1 mg twice a day. The tumor continued to show no progression in May, and the alfacalcidol dose was reduced to 2 micrograms twice a day in June, when the metformin dose was raised to […] in the morning. […]

Turning to `Cc1cc(C(C)(C)C)c(O)c(C(C)(C)C)c1` [BHT, butylated hydroxytoluene], the “killing of lipid-encapsulated viruses” value in data set [1] is on record as “kill lipid-encapsulated viruses”.
For the compound `Oc1ccc(C=Cc2cc(O)cc(O)c2)cc1` [Resveratrol], the blood-brain barrier penetration result in data set [2] is listed as “poorly if at all”. Moreover, the anti-glioblastoma effects entry in data set [3] is reported as “powerful anti-glioblastoma effects”.
`O=C(O)C(Cl)Cl` [DCA, dichloroacetate]: the “side effect of DCA” value in data set [4] is on record as “numbness was experienced”.
